In ChEMBL document CHEMBL4765295, “Synthesis, pharmacological profile and 2D-QSAR studies of curcumin-amino acid conjugates as potential drug candidates” (Eur J Med Chem, 2020):
Several values for one entry are separate records, joined by “and”; a condition that tells them apart may be missing. Identical values can stand only once.

Columns and labels:
Rattus norvegicus [1] = assay: Antiinflammatory activity in Wistar rat model of carrageenan-induced paw edema assessed as reduction in thickness of paw edema at 10 mg/kg, ip pretreated for 1 hr followed by carrageenan challenge and measured after 1 hr (reference value: 2.41 +/-0.05 mm); format: functional; conditions: time 1 hr after carrageenan
Rattus norvegicus [2] = assay: Anti-inflammatory activity in Wistar rat assessed as inhibition of carrageenan-induced paw edema at 10 mg/kg, ip pretreated for 1 hr followed by carrageenan challenge and measured after 1 hr relative to control (reference value: 0.00 +/-0.02 %); format: functional; conditions: time 2 hrs
Rattus norvegicus [3] = assay: Antiinflammatory activity in Wistar rat model of carrageenan-induced paw edema assessed as reduction in thickness of paw edema at 10 mg/kg, ip pretreated for 1 hr followed by carrageenan challenge and measured after 2 hrs (reference value: 2.06 +/-0.09 mm); format: functional; conditions: time 3 hrs
Rattus norvegicus [4] = assay: Anti-inflammatory activity in Wistar rat assessed as inhibition of carrageenan-induced paw edema at 10 mg/kg, ip pretreated for 1 hr followed by carrageenan challenge and measured after 2 hr relative to control (reference value: 0.00 +/-0.03 %); format: functional; conditions: time 3 hrs
Rattus norvegicus [5] = assay: Antiinflammatory activity in Wistar rat model of carrageenan-induced paw edema assessed as reduction in thickness of paw edema at 10 mg/kg, ip pretreated for 1 hr followed by carrageenan challenge and measured after 3 hrs (reference value: 1.79 +/-0.07 mm); format: functional; conditions: time 4 hrs
Rattus norvegicus [6] = assay: Anti-inflammatory activity in Wistar rat assessed as inhibition of carrageenan-induced paw edema at 10 mg/kg, ip pretreated for 1 hr followed by carrageenan challenge and measured after 3 hr relative to control (reference value: 0.00 +/-0.1 %); format: functional; conditions: time 4 hrs
Rattus norvegicus [7] = assay: Antiinflammatory activity in Wistar rat model of carrageenan-induced paw edema assessed as reduction in thickness of paw edema at 10 mg/kg, ip pretreated for 1 hr followed by carrageenan challenge and measured after 4 hrs (reference value: 1.40 +/-0.10 mm); format: functional; conditions: time 5 hrs
Rattus norvegicus [8] = assay: Anti-inflammatory activity in Wistar rat assessed as inhibition of carrageenan-induced paw edema at 10 mg/kg, ip pretreated for 1 hr followed by carrageenan challenge and measured after 4 hr relative to control (reference value: 0.00 +/-0.4 %); format: functional; conditions: time 5 hrs
Rattus norvegicus [9] = assay: Antiinflammatory activity in Wistar rat model of carrageenan-induced paw edema assessed as reduction in thickness of paw edema at 10 mg/kg, ip pretreated for 1 hr followed by carrageenan challenge and measured after 24 hrs (reference value: 0.83 +/-0.08 mm); format: functional; conditions: time 25 hrs
Rattus norvegicus [10] = assay: Anti-inflammatory activity in Wistar rat assessed as inhibition of carrageenan-induced paw edema at 10 mg/kg, ip pretreated for 1 hr followed by carrageenan challenge and measured after 24 hr relative to control (reference value: 0.00 +/-0.3 %); format: functional; conditions: time 25 hrs
Rattus norvegicus [11] = assay: Anti-inflammatory activity in Wistar rat assessed as inhibition of carrageenan-induced paw edema at 10 mg/kg, ip pretreated for 1 hr followed by carrageenan challenge and measured after 4 hr relative to indomethacin; format: functional; conditions: time 5 hrs
[12] = Ulcerogenic activity in fasted albino mouse assessed as incidence of gastric ulceration at 10 mg/kg, po for 3 days (reference value: 0 %); format: toxicity, organism-based; conditions: in vivo, 72 h, time 3 day
[13] = Ulcerogenic activity in fasted albino mouse assessed as average number of ulcers in gastric mucosa at 10 mg/kg, po for 3 days (reference value: 0); format: toxicity, organism-based; conditions: in vivo, 72 h, time 3 day
[14] = Ulcerogenic activity in fasted albino mouse assessed as average severity of ulcers in gastric mucosa at 10 mg/kg, po for 3 days (reference value: 0); format: toxicity, organism-based; conditions: in vivo, 72 h, time 3 day
[15] = Ulcerogenic activity in fasted albino mouse assessed as ulcer index in gastric mucosa at 10 mg/kg, po for 3 days (reference value: 0); format: toxicity, organism-based; conditions: in vivo, 72 h, time 3 day
Splenocyte [16] = assay: Immunomodulatory activity in Swiss albino mouse splenocytes assessed as cell viability at 10 uM by measuring stimulation index incubated for 72 hrs in presence of mitogenic stimulus phytohaemagglutinin by MTT assay (reference value: 1.00 +/- 0.24); format: functional
Splenocyte [17] = assay: Immunomodulatory activity in Swiss albino mouse splenocytes assessed as cell viability at 10 uM by measuring inhibition of stimulation index incubated for 72 hrs in presence of mitogenic stimulus phytohaemagglutinin by MTT assay relative to indomethacin; format: functional; conditions: read-out: Activity
Peritoneal macrophage [18] = assay: Antiinflammatory activity in […] mouse Peritoneal macrophages assessed as reduction in LPS-induced NO production by measuring reduction in stimulation index at 10 uM preincubated for 1 hr followed by LPS stimulation measured after 24 hrs by Griess method (reference value: 27.31 +/- 2.56 uM); format: functional; conditions: time 25 hrs
Peritoneal macrophage [19] = assay: Antiinflammatory activity in […] mouse Peritoneal macrophages assessed as inhibition of LPS-induced NO production at 10 uM preincubated for 1 hr followed by LPS stimulation measured after 24 hrs by Griess method relative to control (reference value: 0.0 %); format: functional; design: scale not given: the % may be the effect or the level left; conditions: time 25 hrs
Mus musculus [20] = assay: Analgesic activity in albino mouse assessed reduction in acetic acid-induced abdominal writhing by measuring writing reflex at 10 mg/kg, ip pretreated for 1 hr followed by acetic acid challenge and measured starting 5 mins post acetic acid challenge for 10 mins (reference value: 42.4 +/- 1.02); format: functional; conditions: time 75 min, 1.25 h
Mus musculus [21] = assay: Analgesic activity in albino mouse assessed protection against acetic acid-induced abdominal writhing at 10 mg/kg, ip pretreated for 1 hr followed by acetic acid challenge and measured starting 5 mins post acetic acid challenge for 10 mins relative to control (reference value: 0 %); format: functional; conditions: time 75 min, 1.25 h
Mus musculus [22] = assay: Analgesic activity in albino mouse assessed protection against acetic acid-induced abdominal writhing at 10 mg/kg, ip pretreated for 1 hr followed by acetic acid challenge and measured starting 5 mins post acetic acid challenge for 10 mins relative to indomethacin; format: functional; conditions: time 75 min, 1.25 h
Mus musculus [23] = assay: Analgesic activity in albino mouse assessed as forepaw licking/jumping latency time at 10 mg/kg, ip measured after 30 mins by hot plate test (reference value: 5.02 +/- 0.09 sec); format: functional; conditions: 0.5 h
Mus musculus [24] = assay: Analgesic activity in albino mouse assessed as protection at 10 mg/kg, ip measured after 30 mins by hot plate test (reference value: 0 %); format: functional; conditions: 0.5 h
Mus musculus [25] = assay: Analgesic activity in albino mouse assessed as forepaw licking/jumping latency time at 10 mg/kg, ip measured after 60 mins by hot plate test (reference value: 3.42 +/- 0.03 sec); format: functional; conditions: 1 h
Mus musculus [26] = assay: Analgesic activity in albino mouse assessed as protection at 10 mg/kg, ip measured after 60 mins by hot plate test (reference value: 0 %); format: functional; conditions: 1 h
Mus musculus [27] = assay: Analgesic activity in albino mouse assessed as forepaw licking/jumping latency time at 10 mg/kg, ip measured after 90 mins by hot plate test (reference value: 2.72 +/- 0.01 sec); format: functional; conditions: 1.5 h
Mus musculus [28] = assay: Analgesic activity in albino mouse assessed as protection at 10 mg/kg, ip measured after 90 mins by hot plate test (reference value: 0 %); format: functional; conditions: 1.5 h
Mus musculus [29] = assay: Analgesic activity in albino mouse assessed as forepaw licking/jumping latency time at 10 mg/kg, ip measured after 120 mins by hot plate test (reference value: 2.62 +/- 0.06 sec); format: functional; conditions: 2 h
Mus musculus [30] = assay: Analgesic activity in albino mouse assessed as protection at 10 mg/kg, ip measured after 120 mins by hot plate test (reference value: 0 %); format: functional; conditions: 2 h
Mus musculus [31] = assay: Analgesic activity in albino mouse assessed as protection at 10 mg/kg, ip measured after 120 mins by hot plate test relative to indomethacin; format: functional; conditions: 2 h
Staphylococcus aureus = assay: Antibacterial activity against Staphylococcus aureus ATCC 25923 incubated for 18 hrs by agar dilution method; format: functional
Streptococcus pyogenes = assay: Antibacterial activity against Streptococcus pyogenes ATCC 19615 incubated for 18 hrs by agar dilution method; format: functional
Salmonella typhimurium = assay: Antibacterial activity against Salmonella typhimurium ATCC 19430 incubated for 18 hrs by agar dilution assay; format: functional, Salmonella enterica subsp. enterica serovar Typhimurium; conditions: Salmonella enterica
Pseudomonas aeruginosa = assay: Antibacterial activity against Pseudomonas aeruginosa ATCC 27853 incubated for 18 hrs by agar dilution assay; format: functional
Candida albicans = assay: Antifungal activity against Candida albicans incubated for 18 to 24 hrs by CLSI method; format: functional; conditions: time 18-24 hrs
A549 = assay: Antiproliferative activity against human A549 cells assessed as inhibition of cell growth after 72 hrs by MTT assay; format: functional, cell-based; conditions: A549, 72 h
MCF7 = assay: Antiproliferative activity against human MCF7 cells assessed as inhibition of cell growth after 72 hrs by MTT assay; format: functional, cell-based; conditions: MCF7, 72 h
PC-3 = assay: Antiproliferative activity against human PC3 cells assessed as inhibition of cell growth after 72 hrs by MTT assay; format: functional, cell-based; conditions: PC-3, 72 h
[32] = Toxicity in albino mouse assessed as induction of toxic symptoms at 50 to 100 mg/kg, ip measured after 24 hrs; format: organism-based; conditions: in vivo, dose 50-100 mg/kg

Structure (SMILES)	Activity (Rattus norvegicus [1]) [mm]	inhibition in vivo at 10 mg/kg (Rattus norvegicus [2]) [%]	Activity (Rattus norvegicus [3]) [mm]	inhibition in vivo at 10 mg/kg (Rattus norvegicus [4]) [%]	Activity (Rattus norvegicus [5]) [mm]	inhibition in vivo at 10 mg/kg (Rattus norvegicus [6]) [%]	Activity (Rattus norvegicus [7]) [mm]	inhibition in vivo at 10 mg/kg (Rattus norvegicus [8]) [%]	Activity (Rattus norvegicus [9]) [mm]	inhibition in vivo at 10 mg/kg (Rattus norvegicus [10]) [%]	inhibition in vivo at 10 mg/kg (Rattus norvegicus [11]) [%]	Activity [12] [%]	Activity [13]	Activity [14]	UI [15]	Activity_index (Splenocyte [16])	viability at 10 µM (Splenocyte [17]) [%]	Activity (Peritoneal macrophage [18]) [µM]	Activity (Peritoneal macrophage [19]) [%]	Activity (Mus musculus [20])	further results
COc1cc(/C=C/C(=O)/C=C(O)/C=C/c2ccc(OC(=O)CCN)c(OC)c2)ccc1OC(=O)CCN.Cl.Cl	0.74	69	0.6	71	0.42	77	0.16	89	0.23	72	102	0	0	0	0	1.39	87.4	15.93	41.68	25.6	Activity (Mus musculus [21]): 39.6%; Activity (Mus musculus [22]): 64.3%; Time (Mus musculus [23]): 5.46 s; Activity (Mus musculus [24]): 8.8%; Time (Mus musculus [25]): 5.2 s; Activity (Mus musculus [26]): 52%; Time (Mus musculus [27]): 4.16 s; Activity (Mus musculus [28]): 52.9%; Time (Mus musculus [29]): 3.56 s; Activity (Mus musculus [30]): 35.9%; Activity (Mus musculus [31]): 85.5%; MIC (Staphylococcus aureus): 1 µg/mL and 1.71 µM; MIC (Streptococcus pyogenes): 1 µg/mL and 1.71 µM; MIC (Salmonella typhimurium): 1 µg/mL and 1.71 µM; MIC (Pseudomonas aeruginosa): 1 µg/mL and 1.71 µM; MIC (Candida albicans): 0.5 µg/mL and 0.857 µM; IC50 (A549): 32.4 µM; IC50 (MCF7): 9.36 µM; IC50 (PC-3): 30.2 µM; Activity [32]: Non-Toxic
COc1cc(/C=C/C(=O)/C=C(O)/C=C/c2ccc(OC(=O)[C@@H](N)CCSC)c(OC)c2)ccc1OC(=O)[C@@H](N)CCSC.Cl.Cl	0.86	64	0.62	70	0.49	73	0.04	97	0.53	36	111	0	0	0	0	1.49	81.3	16.95	37.94	27.2	Activity (Mus musculus [21]): 35.8%; Activity (Mus musculus [22]): 58.1%; Time (Mus musculus [23]): 5.28 s; Activity (Mus musculus [24]): 5.2%; Time (Mus musculus [25]): 5.02 s; Activity (Mus musculus [26]): 46.8%; Time (Mus musculus [27]): 4.98 s; Activity (Mus musculus [28]): 83.1%; Time (Mus musculus [29]): 4.28 s; Activity (Mus musculus [30]): 63.4%; Activity (Mus musculus [31]): 151%; MIC (Staphylococcus aureus): 0.25 µg/mL and 0.355 µM; MIC (Streptococcus pyogenes): 0.5 µg/mL and 0.711 µM; MIC (Salmonella typhimurium): 0.125 µg/mL and 0.178 µM; MIC (Pseudomonas aeruginosa): 0.5 µg/mL and 0.711 µM; MIC (Candida albicans): 0.5 µg/mL and 0.711 µM; IC50 (A549): 32.8 µM; IC50 (MCF7): 11.3 µM; IC50 (PC-3): 42.6 µM; Activity [32]: Non-Toxic
